The test system of one test is HEK293. In words: cells. The format is functional. Conditions: Homo sapiens, ATCC CRL1573, HEK293; ASSAY_TEST Inhibition of Cell Viability; detection method Resazurin; Fluorescence (ex560/em590); MEDIA DMEM with 10% FBS; plate type 384well; TC; CORNING #3712; time 18 hr. Background: The colour change of resazurin is a common sign of viable cells or microbes.
A further test concerns Acinetobacter baumannii. In words: microbe, parasite or virus in culture. Conditions: ATCC 19606, 18 h, ASSAY_TEST Inhibition of Bacterial Growth, detection method Absorption (OD600), MEDIA CAMHB, plate type 384well, NBS, CORNING #3640.
The next test deals with Candida albicans. Description: microbe, parasite or virus in culture. Conditions: ATCC 90028, ASSAY_TEST Inhibition of Fungal Growth, detection method Absorption (OD530), plate type 384well, NBS, CORNING #3640.
The next test relates to Klebsiella pneumoniae. Description: microbe, parasite or virus in culture. The settings on record: ATCC 700603, 18 h, ASSAY_TEST Inhibition of Bacterial Growth, detection method Absorption (OD600), MEDIA CAMHB, plate type 384well, NBS, CORNING #3640.
The test system of another test is Escherichia coli. In words: microbe, parasite or virus in culture. Conditions: ATCC 25922, 18 h, ASSAY_TEST Inhibition of Bacterial Growth, detection method Absorption (OD600), MEDIA CAMHB, plate type 384well, NBS, CORNING #3640.
A further test deals with Pseudomonas aeruginosa. In words: microbe, parasite or virus in culture. The settings on record: ATCC 27853, 18 h, ASSAY_TEST Inhibition of Bacterial Growth, detection method Absorption (OD600), MEDIA CAMHB, plate type 384well, NBS, CORNING #3640.
Another test has as its system Staphylococcus aureus. Description: microbe, parasite or virus in culture. Conditions: ATCC 43300, 18 h, ASSAY_TEST Inhibition of Bacterial Growth, detection method Absorption (OD600), MEDIA CAMHB, plate type 384well, NBS, CORNING #3640.

Drawing on ChEMBL document CHEMBL4296182, “CO-ADD screening of NIH NCI Diversity Set V”, this text covers CC50 and MIC for six molecules.

Converted amounts (≈) assume the structure as drawn. Bounds are passed on as bounds.

Description for Acinetobacter baumannii: Antibacterial activity against Acinetobacter baumannii ATCC 19606 (CO-ADD:GN_034); MIC in CAMBH media using NBS plates, by OD600
Description for Candida albicans: Antifungal activity against Candida albicans ATCC 90028 (CO-ADD:FG_001); MIC in YNB media using NBS plates, by OD630
Description for Cryptococcus neoformans: Antifungal activity against Cryptococcus neoformans H99 ATCC 208821 (CO-ADD:FG_002); MIC in YNB media using NBS plates, by Resazurin OD(600-570)
Description for Escherichia coli: Antibacterial activity against Escherichia coli ATCC 25922 (CO-ADD:GN_001); MIC in CAMBH media using NBS plates, by OD(600)
Description for Klebsiella pneumoniae: Antibacterial activity against Klebsiella pneumoniae MDR ATCC 70063 (CO-ADD:GN_003); MIC in CAMBH media using NBS plates, by OD(600)
Description for Pseudomonas aeruginosa: Antibacterial activity against Pseudomonas aeruginosa ATCC 27853 (CO-ADD:GN_042); MIC in CAMBH media using NBS plates, by OD(600)
Description for Staphylococcus aureus: Antibacterial activity against Staphylococcus aureus MRSA ATCC 43300 (CO-ADD:GP_020); MIC in CAMBH media, using NBS plates, by OD(600)

In turn, `Cn1c2ccccc2c2ccc3c(c21)C(=O)C=CC3=O` yielded a CC50 in the test with HEK293 of more than 10 µM. For the same molecule, the MIC with Acinetobacter baumannii, in the test on Candida albicans, against Klebsiella pneumoniae, against Escherichia coli, with Pseudomonas aeruginosa and in the test on Cryptococcus neoformans was more than 10 µM in each case. In the test with Staphylococcus aureus, the MIC is more than 10 µM.
Turning to `CC(C)=NNc1ncnc2[nH]cnc12`, in the test on HEK293, the CC50 is more than 10 µM. Besides, the MIC against Acinetobacter baumannii is more than 10 µM; in the test on Candida albicans, 2.5 µM (≈ 0.476 µg/mL); against Klebsiella pneumoniae, more than 10 µM; in the test with Escherichia coli, more than 10 µM; in the test with Pseudomonas aeruginosa it was more than 10 µM; with Cryptococcus neoformans, 10 µM (≈ 1.9 µg/mL). Further, the MIC in the test on Staphylococcus aureus was more than 10 µM.
`SC1=NC2(CCCCCC2)NN1c1ccccc1`: the CC50 in the test on HEK293 is more than 10 µM. Besides, the MIC in the test on Acinetobacter baumannii, with Candida albicans, in the test with Klebsiella pneumoniae, against Escherichia coli, in the test on Pseudomonas aeruginosa and in the test with Cryptococcus neoformans was more than 10 µM in each case. Besides, the MIC against Staphylococcus aureus was more than 10 µM.
`OC(c1cc(-c2ccc(Cl)cc2)nc2ccccc12)C1CCCCN1` (stereo not drawn): the CC50 in the test on HEK293 is more than 10 µM. The MIC in the test on Acinetobacter baumannii, in the test with Candida albicans, in the test with Klebsiella pneumoniae, in the test on Escherichia coli, against Pseudomonas aeruginosa and with Cryptococcus neoformans was more than 10 µM throughout. Further, the MIC in the test with Staphylococcus aureus is more than 10 µM.
Consider `Sc1ncnc2c1ncn2C1CCCO1` (stereo not drawn), for which, in the test with HEK293, the CC50 was more than 10 µM. Also, the MIC with Acinetobacter baumannii, against Candida albicans, against Klebsiella pneumoniae, with Escherichia coli, with Pseudomonas aeruginosa and with Cryptococcus neoformans was more than 10 µM throughout. In addition, in the test with Staphylococcus aureus, the MIC is more than 10 µM.
`O=Nc1c(-c2cccc([N+](=O)[O-])c2)nc2ncccn12`: the CC50 in the test with HEK293 is more than 10 µM. Besides, the MIC against Acinetobacter baumannii is more than 10 µM; in the test on Candida albicans it was 0.625 µM (≈ 0.168 µg/mL); against Klebsiella pneumoniae, more than 10 µM; with Escherichia coli it was more than 10 µM; against Pseudomonas aeruginosa it was more than 10 µM; against Cryptococcus neoformans, 2.5 µM (≈ 0.673 µg/mL). Also, in the test on Staphylococcus aureus, the MIC is 0.312 µM (≈ 0.0841 µg/mL).

For orientation: CC50 means the concentration at which the toxic effect on the cells reaches its halfway point. The low end stands for greater toxicity to the cells, the high end for lower toxicity to the cells.
